From patent publication US20150209315A1 (Cumberland Pharmaceuticals, priority 2009, published 2015)

Tested on: post-operative adult patients
Test: Example 1: patient self-assessment of pain, VAS with movement
Format: in vivo, human
Parameters: key to VAS Score measured with Movement (median): VAS 0-10: 0 = no pain, 10 = intense pain
Procedure: Pain was measured by the patient's self-assessment using a Visual Analog Scale (VAS) from 0-10 with 0 being no pain and 10 being intense pain. This was measured both at rest and with movement. […] […] To account for the missing pain assessments, two missing value approaches as described in the statistical analysis plan were used to impute values. To determine the difference in overall pain at differing time-points, the area under the VAS pain curve during the first 24 hours, between 6 and 24 hours and between 12 and 24 hours were analyzed.

CC(C)Cc1ccc(C(C)C(=O)O)cc1 (stereo not shown) [Ibuprofen, 2-(4-isobutylphenyl) propionic acid]
VAS Score measured with Movement (median) (400 mg, ITT, 36-Hour): 3.6
VAS Score measured with Movement, % Reduction vs Placebo (400 mg, ITT, 36-Hour): 10.0%
VAS Score measured with Movement (median) (400 mg, ITT, 39-Hour): 3.1
VAS Score measured with Movement (median) (400 mg, ITT, 42-Hour): 3.3
VAS Score measured with Movement, % Reduction vs Placebo (400 mg, ITT, 42-Hour): 2.9%
VAS Score measured with Movement (median) (400 mg, ITT, 45-Hour): 3.3
VAS Score measured with Movement, % Reduction vs Placebo (400 mg, ITT, 45-Hour): −6.5%
VAS Score measured with Movement (median) (400 mg, ITT, 48-Hour): 3.2
VAS Score measured with Movement, % Reduction vs Placebo (400 mg, ITT, 48-Hour): −39.1%
VAS Score measured with Movement (median) (800 mg, EEP, 1-Hour): 7.8
VAS Score measured with Movement, % Reduction vs Placebo (800 mg, EEP, 1-Hour): 2.5%
VAS Score measured with Movement (median) (800 mg, EEP, 2-Hour): 7.0
VAS Score measured with Movement, % Reduction vs Placebo (800 mg, EEP, 2-Hour): 1.4%
VAS Score measured with Movement (median) (800 mg, EEP, 3-Hour): 6.1
VAS Score measured with Movement, % Reduction vs Placebo (800 mg, EEP, 3-Hour): −1.7%
VAS Score measured with Movement (median) (800 mg, EEP, 6-Hour): 5.6
VAS Score measured with Movement, % Reduction vs Placebo (800 mg, EEP, 6-Hour): −12.0%
VAS Score measured with Movement (median) (800 mg, EEP, 9-Hour): 4.8
VAS Score measured with Movement, % Reduction vs Placebo (800 mg, EEP, 9-Hour): 4.0%
VAS Score measured with Movement (median) (800 mg, EEP, 12-Hour): 4.4
VAS Score measured with Movement (median) (800 mg, EEP, 15-Hour): 4.2
VAS Score measured with Movement, % Reduction vs Placebo (800 mg, EEP, 15-Hour): 16.0%
VAS Score measured with Movement (median) (800 mg, EEP, 18-Hour): 4.0
VAS Score measured with Movement, % Reduction vs Placebo (800 mg, EEP, 18-Hour): 20.0%
VAS Score measured with Movement (median) (800 mg, EEP, 21-Hour): 3.7
VAS Score measured with Movement, % Reduction vs Placebo (800 mg, EEP, 21-Hour): 26.0%
VAS Score measured with Movement (median) (800 mg, EEP, 24-Hour): 3.6
VAS Score measured with Movement, % Reduction vs Placebo (800 mg, EEP, 24-Hour): 18.2%
VAS Score measured with Movement (median) (800 mg, EEP, 27-Hour): 3.7
VAS Score measured with Movement, % Reduction vs Placebo (800 mg, EEP, 27-Hour): 17.8%
VAS Score measured with Movement (median) (800 mg, EEP, 30-Hour): 3.6
VAS Score measured with Movement (median) (800 mg, EEP, 33-Hour): 3.6
VAS Score measured with Movement, % Reduction vs Placebo (800 mg, EEP, 33-Hour): 5.3%
VAS Score measured with Movement (median) (800 mg, EEP, 36-Hour): 3.4
VAS Score measured with Movement (median) (800 mg, EEP, 39-Hour): 3.8
VAS Score measured with Movement, % Reduction vs Placebo (800 mg, EEP, 39-Hour): −11.8%
VAS Score measured with Movement (median) (800 mg, EEP, 42-Hour): 3.2
VAS Score measured with Movement, % Reduction vs Placebo (800 mg, EEP, 42-Hour): 8.6%
VAS Score measured with Movement (median) (800 mg, EEP, 45 Hour): 2.8
VAS Score measured with Movement, % Reduction vs Placebo (800 mg, EEP, 45 Hour): 9.7%
VAS Score measured with Movement (median) (800 mg, EEP, 48-Hour): 2.1
VAS Score measured with Movement (median) (800 mg, ITT, 1-Hour): 7.3
VAS Score measured with Movement, % Reduction vs Placebo (800 mg, ITT, 1-Hour): 8.8%
VAS Score measured with Movement (median) (800 mg, ITT, 2-Hour): 6.8
VAS Score measured with Movement, % Reduction vs Placebo (800 mg, ITT, 2-Hour): 6.8%
VAS Score measured with Movement (median) (800 mg, ITT, 3-Hour): 6.0
VAS Score measured with Movement, % Reduction vs Placebo (800 mg, ITT, 3-Hour): 4.8%
VAS Score measured with Movement (median) (800 mg, ITT, 6-Hour): 5.3
VAS Score measured with Movement, % Reduction vs Placebo (800 mg, ITT, 6-Hour): 7.0%
VAS Score measured with Movement (median) (800 mg, ITT, 9-Hour): 4.6
VAS Score measured with Movement (median) (800 mg, ITT, 12-Hour): 4.3
VAS Score measured with Movement, % Reduction vs Placebo (800 mg, ITT, 12-Hour): 14.0%
VAS Score measured with Movement (median) (800 mg, ITT, 15-Hour): 4.2
VAS Score measured with Movement, % Reduction vs Placebo (800 mg, ITT, 15-Hour): 16.0%
VAS Score measured with Movement (median) (800 mg, ITT, 18-Hour): 4.0
VAS Score measured with Movement, % Reduction vs Placebo (800 mg, ITT, 18-Hour): 20.0%
VAS Score measured with Movement (median) (800 mg, ITT, 21-Hour): 3.8
VAS Score measured with Movement, % Reduction vs Placebo (800 mg, ITT, 21-Hour): 22.4%
VAS Score measured with Movement (median) (800 mg, ITT, 24-Hour): 3.7
VAS Score measured with Movement, % Reduction vs Placebo (800 mg, ITT, 24-Hour): 17.8%
VAS Score measured with Movement (median) (800 mg, ITT, 27 Hour): 3.6
VAS Score measured with Movement, % Reduction vs Placebo (800 mg, ITT, 27 Hour): 18.2%
VAS Score measured with Movement (median) (800 mg, ITT, 30-Hour): 3.5
VAS Score measured with Movement (median) (800 mg, ITT, 33-Hour): 3.5
VAS Score measured with Movement, % Reduction vs Placebo (800 mg, ITT, 33-Hour): 7.9%
VAS Score measured with Movement (median) (800 mg, ITT, 36-Hour): 3.5
VAS Score measured with Movement (median) (800 mg, ITT, 39-Hour): 3.7
VAS Score measured with Movement, % Reduction vs Placebo (800 mg, ITT, 39-Hour): -5.7%
VAS Score measured with Movement (median) (800 mg, ITT, 42-Hour): 3.3
VAS Score measured with Movement, % Reduction vs Placebo (800 mg, ITT, 42-Hour): 2.9%
VAS Score measured with Movement (median) (800 mg, ITT, 45-Hour): 2.7
VAS Score measured with Movement (median) (800 mg, ITT, 48-Hour): 2.1
VAS Score measured with Movement, % Reduction vs Placebo (800 mg, ITT, 48-Hour): 8.7%
